From publication PMC10824666 (Nature Cancer, 2023)
Like-named read-outs stand apart in the source and are kept apart here.

Tests used:
Assay in all cases: biochemical
Parameters in all cases: Eurofins DiscoverX kinase panel, competitive binding assay at 1 uM, percent of DMSO control
Settings in all cases: competitive binding, percent of DMSO control
JAK2 = JAK2 (Homo sapiens, UniProt O60674)
Method in brief: (§1)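 Single-point profiling at 1 µM compound in a competition-binding format against 96 kinases, read out as POC relative to control; n = 1.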

ALK = ALK (Homo sapiens, UniProt Q9UM73)
ALK, sequence (Q9UM73 whole entry): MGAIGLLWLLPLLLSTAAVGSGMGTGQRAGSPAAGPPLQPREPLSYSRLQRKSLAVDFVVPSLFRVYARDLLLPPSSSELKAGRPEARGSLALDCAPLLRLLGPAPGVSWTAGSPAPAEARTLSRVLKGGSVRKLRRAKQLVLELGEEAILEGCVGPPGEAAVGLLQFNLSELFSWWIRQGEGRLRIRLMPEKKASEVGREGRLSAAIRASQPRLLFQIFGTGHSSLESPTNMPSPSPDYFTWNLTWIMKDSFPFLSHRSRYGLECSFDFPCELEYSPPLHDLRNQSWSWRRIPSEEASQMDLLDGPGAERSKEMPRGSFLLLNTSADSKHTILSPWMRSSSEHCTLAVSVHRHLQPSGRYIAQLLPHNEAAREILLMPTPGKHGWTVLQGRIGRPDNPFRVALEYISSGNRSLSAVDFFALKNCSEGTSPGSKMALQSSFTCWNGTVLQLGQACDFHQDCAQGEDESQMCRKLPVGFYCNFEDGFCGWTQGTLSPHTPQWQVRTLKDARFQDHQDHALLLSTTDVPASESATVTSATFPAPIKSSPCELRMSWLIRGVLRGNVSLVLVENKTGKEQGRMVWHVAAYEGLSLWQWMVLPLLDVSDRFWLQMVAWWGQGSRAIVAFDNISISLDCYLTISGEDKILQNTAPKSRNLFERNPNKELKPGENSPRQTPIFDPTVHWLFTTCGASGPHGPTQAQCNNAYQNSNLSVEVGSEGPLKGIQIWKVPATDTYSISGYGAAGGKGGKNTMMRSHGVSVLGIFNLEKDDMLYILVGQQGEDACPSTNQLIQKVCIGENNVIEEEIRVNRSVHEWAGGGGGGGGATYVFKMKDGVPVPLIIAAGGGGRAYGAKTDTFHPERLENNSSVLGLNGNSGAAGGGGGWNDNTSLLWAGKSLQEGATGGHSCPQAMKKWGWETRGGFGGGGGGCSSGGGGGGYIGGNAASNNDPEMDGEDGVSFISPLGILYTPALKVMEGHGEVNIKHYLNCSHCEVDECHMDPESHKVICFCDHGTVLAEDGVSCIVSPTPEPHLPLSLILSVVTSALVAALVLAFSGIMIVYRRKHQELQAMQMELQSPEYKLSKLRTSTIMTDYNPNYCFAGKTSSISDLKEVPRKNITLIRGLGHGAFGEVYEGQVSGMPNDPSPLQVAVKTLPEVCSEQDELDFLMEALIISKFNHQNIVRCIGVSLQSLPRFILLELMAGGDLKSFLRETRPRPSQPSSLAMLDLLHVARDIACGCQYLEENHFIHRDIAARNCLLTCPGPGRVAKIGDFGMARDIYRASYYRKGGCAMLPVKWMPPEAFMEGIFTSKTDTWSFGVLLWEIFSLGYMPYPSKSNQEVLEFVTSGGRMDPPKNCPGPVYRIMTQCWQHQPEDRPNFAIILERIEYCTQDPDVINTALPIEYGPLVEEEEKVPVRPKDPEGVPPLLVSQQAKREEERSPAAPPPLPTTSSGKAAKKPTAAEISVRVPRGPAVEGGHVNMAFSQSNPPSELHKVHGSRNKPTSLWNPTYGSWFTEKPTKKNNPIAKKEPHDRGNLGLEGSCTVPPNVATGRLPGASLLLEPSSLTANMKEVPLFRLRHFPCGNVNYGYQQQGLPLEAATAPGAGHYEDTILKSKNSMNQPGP
Method in brief: as §1

DYRK1a = DYRK1a (Homo sapiens, UniProt Q13627)
Method in brief: as §1

TAOK2 = biological target: T1, TAOK2 (Homo sapiens, UniProt Q9UL54)
T1 sequence (Q9UL54 1-1235): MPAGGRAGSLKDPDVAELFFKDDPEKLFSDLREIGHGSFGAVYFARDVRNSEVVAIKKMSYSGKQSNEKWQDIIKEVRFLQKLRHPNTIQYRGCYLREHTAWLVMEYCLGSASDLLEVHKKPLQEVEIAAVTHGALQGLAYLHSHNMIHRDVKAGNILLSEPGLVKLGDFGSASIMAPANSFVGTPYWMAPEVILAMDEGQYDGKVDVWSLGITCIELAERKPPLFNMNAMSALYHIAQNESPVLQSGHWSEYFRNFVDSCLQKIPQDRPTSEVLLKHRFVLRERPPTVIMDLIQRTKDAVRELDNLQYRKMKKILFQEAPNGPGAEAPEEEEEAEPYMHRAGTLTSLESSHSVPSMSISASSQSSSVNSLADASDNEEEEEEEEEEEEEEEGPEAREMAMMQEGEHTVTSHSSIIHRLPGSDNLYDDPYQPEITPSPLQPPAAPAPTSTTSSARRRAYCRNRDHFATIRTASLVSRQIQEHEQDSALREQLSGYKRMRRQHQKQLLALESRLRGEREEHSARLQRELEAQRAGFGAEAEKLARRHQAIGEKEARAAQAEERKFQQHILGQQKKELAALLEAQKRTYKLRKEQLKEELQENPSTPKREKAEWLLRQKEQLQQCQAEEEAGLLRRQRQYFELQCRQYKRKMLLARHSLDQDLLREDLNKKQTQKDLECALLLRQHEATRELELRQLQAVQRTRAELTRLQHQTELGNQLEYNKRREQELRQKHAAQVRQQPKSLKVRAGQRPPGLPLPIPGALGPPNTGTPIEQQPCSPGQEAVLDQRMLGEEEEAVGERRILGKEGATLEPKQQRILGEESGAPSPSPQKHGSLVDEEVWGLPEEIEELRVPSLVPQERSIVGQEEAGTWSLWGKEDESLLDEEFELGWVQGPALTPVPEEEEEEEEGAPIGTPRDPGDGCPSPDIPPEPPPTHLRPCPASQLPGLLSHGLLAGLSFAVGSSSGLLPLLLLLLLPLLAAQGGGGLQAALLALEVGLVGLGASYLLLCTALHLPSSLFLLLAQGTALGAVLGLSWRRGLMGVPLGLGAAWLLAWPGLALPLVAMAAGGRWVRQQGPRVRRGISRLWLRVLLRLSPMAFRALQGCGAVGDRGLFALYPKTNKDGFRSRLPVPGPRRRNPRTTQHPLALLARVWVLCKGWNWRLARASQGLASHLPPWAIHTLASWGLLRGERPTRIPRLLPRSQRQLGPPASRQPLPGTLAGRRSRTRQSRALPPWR
Method in brief: as §1

CDK4 = CDK4 (Homo sapiens, UniProt P11802)
CDK4, sequence (P11802 whole entry): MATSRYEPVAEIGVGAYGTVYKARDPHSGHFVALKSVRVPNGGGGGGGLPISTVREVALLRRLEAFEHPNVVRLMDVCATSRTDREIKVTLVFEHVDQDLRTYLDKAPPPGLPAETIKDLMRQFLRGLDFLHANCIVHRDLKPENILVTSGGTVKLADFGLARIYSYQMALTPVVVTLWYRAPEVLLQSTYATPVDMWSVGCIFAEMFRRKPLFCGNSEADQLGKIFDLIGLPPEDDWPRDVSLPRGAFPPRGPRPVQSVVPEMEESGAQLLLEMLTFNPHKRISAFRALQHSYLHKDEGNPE
Method in brief: as §1

[1] = read-out: Kinome Profiling performed by Eurofins DiscoverX / AM-1882, 1.0 µM / POC
[2] = read-out: Kinome Profiling performed by Eurofins DiscoverX / AM-0277, 1.0 µM / POC
[3] = read-out: Kinome Profiling performed by Eurofins DiscoverX / AM-5308, 1.0 µM / POC

JAK2, sequence (O60674 whole entry): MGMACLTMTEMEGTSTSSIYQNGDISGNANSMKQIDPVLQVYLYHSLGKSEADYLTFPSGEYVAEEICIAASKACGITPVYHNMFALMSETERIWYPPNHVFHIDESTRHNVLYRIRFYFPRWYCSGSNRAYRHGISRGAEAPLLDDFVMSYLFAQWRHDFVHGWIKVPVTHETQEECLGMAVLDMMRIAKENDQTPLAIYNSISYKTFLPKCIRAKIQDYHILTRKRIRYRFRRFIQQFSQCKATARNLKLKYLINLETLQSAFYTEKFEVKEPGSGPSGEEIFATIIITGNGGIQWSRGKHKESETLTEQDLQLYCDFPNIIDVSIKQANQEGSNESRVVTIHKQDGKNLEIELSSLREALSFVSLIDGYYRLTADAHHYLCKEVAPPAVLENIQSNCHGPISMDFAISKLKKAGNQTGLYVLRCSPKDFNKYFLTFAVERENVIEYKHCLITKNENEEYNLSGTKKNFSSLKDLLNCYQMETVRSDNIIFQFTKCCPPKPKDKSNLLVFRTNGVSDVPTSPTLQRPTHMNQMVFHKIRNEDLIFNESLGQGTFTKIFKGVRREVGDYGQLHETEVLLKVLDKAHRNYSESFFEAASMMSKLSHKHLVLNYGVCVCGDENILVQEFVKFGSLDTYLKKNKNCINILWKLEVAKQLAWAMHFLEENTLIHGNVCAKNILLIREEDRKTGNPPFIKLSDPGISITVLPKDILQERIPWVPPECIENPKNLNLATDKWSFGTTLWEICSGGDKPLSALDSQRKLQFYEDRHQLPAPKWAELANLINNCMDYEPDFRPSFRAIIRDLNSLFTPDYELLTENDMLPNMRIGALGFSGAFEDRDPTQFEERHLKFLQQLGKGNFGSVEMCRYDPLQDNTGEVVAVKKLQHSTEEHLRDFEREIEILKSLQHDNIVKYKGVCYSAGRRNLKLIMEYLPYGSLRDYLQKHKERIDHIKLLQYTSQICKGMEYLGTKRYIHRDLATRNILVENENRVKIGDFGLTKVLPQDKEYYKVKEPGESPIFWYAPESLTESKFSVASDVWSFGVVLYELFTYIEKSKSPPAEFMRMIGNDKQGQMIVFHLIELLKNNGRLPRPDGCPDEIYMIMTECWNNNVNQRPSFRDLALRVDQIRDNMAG

SMILES: CC(C)(C)NS(=O)(=O)c1cccc(NC(=O)c2ccc(S(=O)(=O)NC(C)(C)C)cc2N2CCC3(CC2)CC3)c1 [AM-1882]
- remaining activity at 1 µM (JAK2; [1]): 100%
- remaining activity at 1 µM (ALK; [1]): 81%
- remaining activity at 1 µM (DYRK1a; [1]): 81%
- remaining activity at 1 µM (TAOK2; [1]): 81.5%
- remaining activity at 1 µM (CDK4; [1]): 64%

SMILES: CC(C)(CO)Nc1ccc(C(=O)Nc2cccc(S(=O)(=O)C3CCCC3)c2)c(N2CCC3(CC2)CC3)n1 [AM-0277]
- remaining activity at 1 µM (JAK2; [2]): 100%
- remaining activity at 1 µM (ALK; [2]): 100%
- remaining activity at 1 µM (DYRK1a; [2]): 100%
- remaining activity at 1 µM (TAOK2; [2]): 98%
- remaining activity at 1 µM (CDK4; [2]): 100%

SMILES: C[C@@H]1CN(c2cccc(NC(=O)c3ccc(NS(=O)(=O)CCO)cc3N3CCC4(CC3)CC4)n2)CCO1 [AM-5308]
- remaining activity at 1 µM (JAK2; [3]): 94.5%
- remaining activity at 1 µM (ALK; [3]): 89%
- remaining activity at 1 µM (DYRK1a; [3]): 100%
- remaining activity at 1 µM (TAOK2; [3]): 81%
- remaining activity at 1 µM (CDK4; [3]): 98.5%
